Entries after “also recorded” stand apart in the source; their conditions may differ.
Tests used:
[1] = test system: Calcium activated chloride conductance (CaCC); test: Whole cell patch clamp recordings of CaCC in JME/CF15 cells; assay type: cell-based
Experimental: (§1) Compound 2 was tested in whole cell patch clamp recordings for its specific effect on the swelling-activated chloride conductance (VRAC), and the Calcium activated chloride conductance (CaCC). CaCC and VRAC were investigated in JME/CF15 cells. […] Effect of compound 2 was tested in 2 runs at 1 and 10 μM, respectively, on CaCC, and VRAC.
(§2) JME/CF15 cells (see Jefferson et al. “Expression of normal and cystic fibrosis phenotypes by continuous airway epithelial cell lines” Am J Physiol. (1990) 259:L496-L505) were cultured as described (see Schwarzer et al. “Organelle redox of CF and CFTR-corrected airway epithelia measured with roGFP1” Free Radic Biol Med. (2007) 43:300-316, incorporated herein by reference in its entirety) and were seeded onto glass cover slips at low density and used 1 to 2 days after seeding
(§3) Whole cell patch clamp experiments were performed as described (see Fischer et al. “Basolateral C1 channels in primary airway epithelial cultures” Am J Physiol Lung Cell Mol Physiol. (2007) 292:L1432-L1443, incorporated herein by reference in its entirety), the pipette solution contained (in mM): 140 HCl, 160 N-methyl-D-glucamine (NMDG), 1 MgCl2, 5 Hepes, 1 glucose, 5 MgATP, pH 7.4. To investigate VRAC, the pipette contained in addition 5 mM EGTA. To investigate CaCC, the intracellular free Ca concentration was buffered to ˜500 nM by adding 1.8 mM CaCl2 and 2 mM EGTA. […]

[2] = test system: swelling-activated chloride conductance (VRAC); test: Whole cell patch clamp recordings of VRAC in JME/CF15 cells; assay type: cell-based
Experimental: as §1, §2, §3

cholera toxin (CTX) = test system: cholera toxin (CTX); set-up: species or system mice (CD1 strain); conditions: mouse, in vivo
[3] = 10 μM, 0% indicates complete block and 100% indicates no block
[4] = tested at 1 and 10 μM, block stronger at depolarizing (positive) potential

In the case of `O=S(=O)(Nc1cccc(-c2ccc(OCCc3ccc(Cl)cc3)nn2)c1)C(F)(F)F` [compound 2, N-(3-(6-(4-chlorophenethoxy)pyridazin-3-yl)phenyl)-1,1,1-trifluoromethanesulfonamide], the “current remaining in CaCC after the addition of compound” value [1, 3] was 64%, the “block of CaCC (in words)” value [1, 4] was “blocks CaCC and that the block is voltage dependent; also recorded: blocked CaCC and the block was voltage dependent” and the “current remaining in VRAC” value [2, 3] was 23%. The “block of VRAC (in words)” value [2, 4] was “blocks VRAC significantly and that the block is voltage dependent; also recorded: blocked VRAC significantly and the block was voltage dependent” and the “inhibition of fluid secretion (in words)” value (cholera toxin (CTX)) was “statistically significant inhibition”.

`O=C(NCc1ccc(Oc2ccccc2)cc1)c1nc(-c2cc(Br)c(O)c(Br)c2)no1` [BF'032, 3-(3,5-dibromo-4-hydroxyphenyl)-N-(4-phenoxybenzyl)-1,2,4-oxadiazole-5-carboxamide] was tested, and the “inhibition of CTX-induced fluid secretion” value (cholera toxin (CTX)) was 90.16%, the “inhibition of fluid secretion (in words)” value (cholera toxin (CTX)) was “statistically significant inhibition” and the “net fluid secretion (loop weight/loop length), CTX loop” value (cholera toxin (CTX)) was 0.06482 g/cm of loop.
